Measurements reported in PMC11601558, “SLC6A19 inhibition facilitates urinary neutral amino acid excretion and lowers plasma phenylalanine” (JCI Insight, 2024).
Where “and” joins values, the source holds several entries; their conditions need not be identical. Equal values may be shown once.

Test system: WT C57Bl/6J mice
Test: Urine amino acid excretion in WT C57Bl/6J mice after JN-170
Format: in vivo, mouse
Design: urine Gln excretion / urine Phe excretion: unit not given here
Settings: for 12 hour urine Arg (Fig 2b) / 12 hour urine Gln (Fig 2b) / 12 hour urine Glu (Fig 2b) / 12 hour urine His (Fig 2b) / 12 hour urine Lys (Fig 2b) / 12 hour urine Met (Fig 2b) / 12 hour urine Phe (Fig 2b) / 12 hour urine Pro (Fig 2b) / 12 hour urine Ser (Fig 2b) / 12 hour urine Thr (Fig 2b) / 12 hour urine Trp (Fig 2b) / 12 hour urine Tyr (Fig 2b): individual mice
Protocol: Male homozygous BTBR-Pah<enu2>/J (Pah^enu2) aged 10–13 weeks were purchased from Jackson Laboratory (no. 002232). Immediately before dosing, each animal’s bladder was manually emptied and a plasma sample was drawn. Animals were dosed by oral gavage with vehicle (10% DMSO, 20% 2-hydroxypropyl-β-cyclodextrin [Sigma-Aldrich]) followed by a 1-week washout prior to dosing with JN-170 at doses ranging from 50 to 250 mg/kg. Following dosing with vehicle or JN-170, animals were individually placed in metabolic cages to collect urine samples. After collection of each urine sample, cages were rinsed with ultra-pure water to recover residual analytes. Blood samples were collected predose as well as 1, 3, 8, 12, and 24 hours after dosing with vehicle or JN-170 into tubes with EDTA as a […], and plasma was separated by centrifuging samples at 2,200g for 5 minutes at 4°C. Throughout the study, mice had access to food and water ad libitum. Plasma and urine samples were stored at –80°C until processing.Ten-week-old male WT C57Bl/6J animals (Si Bei Fu Laboratory Animal Technology Co. Ltd.) were dosed either with vehicle or 50–250 mg/kg JN-170 by oral gavage and blood and urine samples were collected as described. All animals had unrestricted access to food and water during the study; C57Bl/6J were kept on rodent maintenance diet from Beijing Keao Xieli, Pah^enu2 mice were kept on Teklad diet no. T.2018.
Urine and cage-wash samples were vortexed and centrifuged at 3,700g for 5 minutes to remove any solid precipitate. Neat samples and samples diluted 1:10 in water were further diluted 1:10 in crash solution (75% acetonitrile 25% methanol, 0.1% formic acid, 5 mM heavy labeled amino acids) to precipitate proteins. Samples were centrifuged at 3,700g for 5 minutes before the supernatant was transferred into an injection plate. Urine amino acid analysis was carried out using a quadrupole time of flight (QToF) LC-mass spectrometry (QToF-LC-MS) bioanalytical method. A standard curve of 1 mM down to 0.06 μM was used as the calibration curve to which samples were quantified. The amino acid concentrations were calculated with a 1/×2 linear regression over a concentration range of 60 nM to 1,000 μM of the individual amino acids. An Agilent QToF 6545 was operated in an accurate mass full scan range of 100–1,700 m/z positive ions formed by electrospray ionization with a normal phase HILIC chromatographic method. An Agilent InfinityLab Poroshell 120 HILIC-Z, 2.1 × 150 mm, 2.7 μm was used as the analytical column with 10 mM Ammonium Acetate in 0.1% FA as mobile phase A and 10 mM Ammonium Acetate in 95% ACN, 0.1% FA as mobile phase B. At a flow rate of 0.25 mL/min, the binary gradient increased from an initial 100% phase B to 90% phase B over 3 minutes. After 1.5 minutes, the gradient ramped to 80% mobile phase B. At 5.6 minutes into the gradient, mobile phase B ramped from 60% to 0% and held for 2 minutes before returning to initial conditions at 7.5 minutes. The gradient was stopped at 10 minutes.Total urine amino acid amounts were calculated by multiplying urine amino acid concentrations by the urine volume and adding the amount of amino acid recovered in the cage wash, which was calculated by multiplying the cage wash amino acid concentration by the cage wash volume.

[1] = Fig S3b, WT mice, individual animals
[2] = WT mice, 0–3 hours after 200 mg/kg

Structure (SMILES): N#Cc1ccc(-c2noc([C@]3(C(F)(F)F)CCN(C(=O)NCCC4(N)CC4)C3)n2)cc1 [JN-170]
- 12 hour urine Arg (Fig 2b) (50 mg/kg single oral dose): 42.35 µg and 21.61 µg and 86.86 µg and 32.17 µg and 60.46 µg and 54.76 µg
- 12 hour urine Gln (Fig 2b) (50 mg/kg single oral dose): 1216.88 µg and 424.1 µg and 3207.04 µg and 1668.39 µg and 2208.59 µg and 1050.68 µg
- 12 hour urine Glu (Fig 2b) (50 mg/kg single oral dose): 29.83 µg and 17.33 µg and 39.89 µg and 30.41 µg and 48.52 µg and 28.91 µg
- 12 hour urine His (Fig 2b) (50 mg/kg single oral dose): 99.8 µg and 39.7 µg and 232.38 µg and 133.78 µg and 173.51 µg and 97.64 µg
- 12 hour urine Lys (Fig 2b) (50 mg/kg single oral dose): 34.24 µg and 15.87 µg and 87.69 µg and 25.64 µg and 70.14 µg and 37.6 µg
- 12 hour urine Met (Fig 2b) (50 mg/kg single oral dose): 22.43 µg and 9.44 µg and 86.47 µg and 39.61 µg and 54.33 µg
- 12 hour urine Phe (Fig 2b) (50 mg/kg single oral dose): 9.69 µg and 12.9 µg and 44.78 µg and 18.25 µg and 46.82 µg and 10.07 µg
- 12 hour urine Pro (Fig 2b) (50 mg/kg single oral dose): 8.47 µg and 4.8 µg and 12.9 µg and 9.81 µg and 24.06 µg and 10.26 µg
- 12 hour urine Ser (Fig 2b) (50 mg/kg single oral dose): 30.76 µg and 12.92 µg and 98.91 µg and 47.01 µg and 97.58 µg and 29.03 µg
- 12 hour urine Thr (Fig 2b) (50 mg/kg single oral dose): 158.71 µg and 83.75 µg and 358.72 µg and 229.83 µg and 330.77 µg and 183.12 µg
- 12 hour urine Trp (Fig 2b) (50 mg/kg single oral dose): 7.91 µg and 4.53 µg and 17.51 µg and 12.59 µg and 19.36 µg and 8.39 µg
- 12 hour urine Tyr (Fig 2b) (50 mg/kg single oral dose): 86.45 µg and 42.23 µg and 289.76 µg and 150.67 µg and 234.77 µg and 101.34 µg
- 12 hour urine Arg (Fig 2b) (100 mg/kg single oral dose): 84.18 µg and 60.05 µg and 104.07 µg and 105.27 µg and 46.38 µg and 44.86 µg
- 12 hour urine Gln (Fig 2b) (100 mg/kg single oral dose): 3618.3 µg and 3716.4 µg and 5677.3 µg and 3847.03 µg and 3083.95 µg and 2876.64 µg
- 12 hour urine Glu (Fig 2b) (100 mg/kg single oral dose): 46.32 µg and 46.97 µg and 58.94 µg and 50.51 µg and 40.88 µg and 28.49 µg
- 12 hour urine His (Fig 2b) (100 mg/kg single oral dose): 295.94 µg and 255.87 µg and 436.69 µg and 286 µg and 268.58 µg and 216 µg
- 12 hour urine Lys (Fig 2b) (100 mg/kg single oral dose): 113.28 µg and 69.96 µg and 170.84 µg and 119.16 µg and 64.12 µg and 61.63 µg
- 12 hour urine Met (Fig 2b) (100 mg/kg single oral dose): 69.6 µg and 61.3 µg and 109.16 µg and 65.46 µg and 59.17 µg and 56.84 µg
- 12 hour urine Phe (Fig 2b) (100 mg/kg single oral dose): 57.79 µg and 56.42 µg and 118.09 µg and 57.72 µg and 36.93 µg and 35.59 µg
- 12 hour urine Pro (Fig 2b) (100 mg/kg single oral dose): 8.92 µg and 10.04 µg and 30.88 µg and 13.13 µg and 10.09 µg and 9.04 µg
- 12 hour urine Ser (Fig 2b) (100 mg/kg single oral dose): 108.24 µg and 109.95 µg and 223.3 µg and 89.79 µg and 97.93 µg and 80.73 µg
- 12 hour urine Thr (Fig 2b) (100 mg/kg single oral dose): 506.96 µg and 408.61 µg and 713.8 µg and 526.01 µg and 450.28 µg and 363.04 µg
- 12 hour urine Trp (Fig 2b) (100 mg/kg single oral dose): 23.65 µg and 18.61 µg and 32.89 µg and 21.7 µg and 20.33 µg and 13.52 µg
- 12 hour urine Tyr (Fig 2b) (100 mg/kg single oral dose): 347.53 µg and 292.84 µg and 493.76 µg and 286.11 µg and 269.6 µg and 215.7 µg
- 12 hour urine Arg (Fig 2b) (200 mg/kg single oral dose): 57.75 µg and 78.23 µg and 75.91 µg and 43.73 µg and 83.72 µg and 75.77 µg
- 12 hour urine Gln (Fig 2b) (200 mg/kg single oral dose): 4199.73 µg and 4322.77 µg and 4076.82 µg and 4061.16 µg and 5861.18 µg and 4643.5 µg
- 12 hour urine Glu (Fig 2b) (200 mg/kg single oral dose): 38.45 µg and 57.79 µg and 49.69 µg and 35.38 µg and 50.26 µg and 67.43 µg
- 12 hour urine His (Fig 2b) (200 mg/kg single oral dose): 416.82 µg and 349.23 µg and 335.84 µg and 309.72 µg and 451.38 µg and 370.2 µg
- 12 hour urine Lys (Fig 2b) (200 mg/kg single oral dose): 104.5 µg and 123.16 µg and 131.26 µg and 79.18 µg and 151.5 µg and 70.63 µg
- 12 hour urine Met (Fig 2b) (200 mg/kg single oral dose): 123.47 µg and 86.31 µg and 49.16 µg and 59.08 µg and 101.09 µg and 139.58 µg
- 12 hour urine Phe (Fig 2b) (200 mg/kg single oral dose): 133.44 µg and 84.26 µg and 51.41 µg and 40.35 µg and 175.28 µg and 83.35 µg
- 12 hour urine Pro (Fig 2b) (200 mg/kg single oral dose): 13.11 µg and 14.35 µg and 18.33 µg and 8.21 µg and 20.58 µg and 15.61 µg
- 12 hour urine Ser (Fig 2b) (200 mg/kg single oral dose): 170.69 µg and 159.37 µg and 110.1 µg and 92.34 µg and 194.17 µg and 159.84 µg
- 12 hour urine Thr (Fig 2b) (200 mg/kg single oral dose): 631.21 µg and 617.4 µg and 618.83 µg and 576.45 µg and 832.11 µg and 699.79 µg
- 12 hour urine Trp (Fig 2b) (200 mg/kg single oral dose): 40.01 µg and 30.26 µg and 27.35 µg and 18.62 µg and 33.13 µg and 31.85 µg
- 12 hour urine Tyr (Fig 2b) (200 mg/kg single oral dose): 480.66 µg and 434.44 µg and 355.04 µg and 315.96 µg and 607.88 µg and 491.56 µg
- 12 hour urine Arg (Fig 2b) (250 mg/kg single oral dose): 80.65 µg and 55.84 µg and 88.5 µg and 63.14 µg and 86.48 µg and 72.88 µg
- 12 hour urine Gln (Fig 2b) (250 mg/kg single oral dose): 7107.31 µg and 3727.75 µg and 5603.56 µg and 4267.69 µg and 6411.47 µg and 5312.07 µg
- 12 hour urine Glu (Fig 2b) (250 mg/kg single oral dose): 72.56 µg and 44.09 µg and 57.4 µg and 37.58 µg and 54.56 µg and 45.85 µg
- 12 hour urine His (Fig 2b) (250 mg/kg single oral dose): 551.64 µg and 312.28 µg and 484.93 µg and 357.16 µg and 531.6 µg and 380.26 µg
- 12 hour urine Lys (Fig 2b) (250 mg/kg single oral dose): 195.46 µg and 113.58 µg and 174.58 µg and 158.8 µg and 185.91 µg and 135.3 µg
- 12 hour urine Met (Fig 2b) (250 mg/kg single oral dose): 187.74 µg and 68.61 µg and 113.61 µg and 89.08 µg and 102.86 µg and 165.83 µg
- 12 hour urine Phe (Fig 2b) (250 mg/kg single oral dose): 183.47 µg and 73.49 µg and 113.19 µg and 97.89 µg and 98.25 µg and 112.7 µg
- 12 hour urine Pro (Fig 2b) (250 mg/kg single oral dose): 23.91 µg and 11.83 µg and 17.19 µg and 13.18 µg and 15.23 µg and 18.44 µg
- 12 hour urine Ser (Fig 2b) (250 mg/kg single oral dose): 292.3 µg and 114.91 µg and 195.78 µg and 144.05 µg and 202.42 µg and 201.61 µg
- 12 hour urine Thr (Fig 2b) (250 mg/kg single oral dose): 952.09 µg and 536.61 µg and 931.14 µg and 639.81 µg and 964.07 µg and 684.47 µg
- 12 hour urine Trp (Fig 2b) (250 mg/kg single oral dose): 51.77 µg and 27.86 µg and 38.14 µg and 35.4 µg and 37.19 µg and 32.26 µg
- 12 hour urine Tyr (Fig 2b) (250 mg/kg single oral dose): 668.76 µg and 364.7 µg and 555.89 µg and 445.94 µg and 662.56 µg and 523.46 µg
- increase in urinary Gln excretion vs vehicle (250 mg/kg, 12 h urine): 84 fold
- increase in urinary His excretion vs vehicle (250 mg/kg, 12 h urine): 32 fold
- increase in urinary Thr excretion vs vehicle (250 mg/kg, 12 h urine): 29 fold
- urinary Gln excretion, mean ± SD (250 mg/kg, 12 h urine): 5,405 ± 1270 μg
- urinary His excretion, mean ± SD (250 mg/kg, 12 h urine): 436 ± 100 µg
- urinary Thr excretion, mean ± SD (250 mg/kg, 12 h urine): 785 ± 187 µg
- urinary Pro excretion, mean ± SD (250 mg/kg, 12 h urine, effect negligible): 17 ± 4 µg
- urine Gln excretion [1]: 1587.77 and 1811.58 and 1136.33 and 1371.1 and 1542.95 and 797.75
- urine Phe excretion [1]: 31.41 and 35.2 and 15.95 and 12.69 and 89.66 and 34.45
- glutamine excreted in urine, mean ± SD [2]: 1,375 ± 362 μg
- urinary excretion of Phe, mean ± SD [2]: 37 ± 28 µg
